This is an account of results in ChEMBL document CHEMBL3352755, “Synthesis and influenza virus inhibitory activities of carbosilane dendrimers peripherally functionalized with hemagglutinin-binding Peptide” (J Med Chem, 2014).

Series [1] is described as follows: Antiviral activity against Influenza A virus (A/Aichi/2/1968(H3N2)) infected in MDCK cells after 2 days using crystal violet staining by plaque assay. In kind it is functional, cell-based. The settings on record: 48 h.
The test system of series [2] is Influenza A virus. The series is described as follows: Antiviral activity against Influenza A virus (A/Puerto Rico/8/34(H1N1)) infected in MDCK cells after 2 days using crystal violet staining by plaque assay. In kind it is functional, organism-based. The settings on record: A/Puerto Rico/8/1934(H1N1), 48 h.
The nature of series [3]: Hemolytic activity in chicken erythrocytes at 30 to 40 uM after 24 hrs by spectrophotometry. In kind it is ADME, cell-based, Gallus gallus. The settings on record: erythrocyte.
For series [4], the system named is MDCK. The series is described as follows: Cytotoxicity against MDCK cells at 200 uM after 2 days by WST-1 cell counting assay. In kind it is cell-based, Canis lupus familiaris. The settings on record: dog, 48 h. (In general: Tetrazolium assays rely on reduction of a dye to a coloured formazan, in cell work by metabolically active cells.)
Series [5] in a line: Hemolytic activity in chicken erythrocytes at 48 uM after 24 hrs by spectrophotometry. In kind it is ADME, cell-based, Gallus gallus, Erythrocyte. The settings on record: read-out: Activity.
Series [6] is described as follows: Critical micelle concentration of the compound in PBS using N-phenyl-1-naphthylamine by fluorescence assay. In kind it is ADME. The settings on record: buffer.
The nature of series [7]: Hemolytic activity in chicken erythrocytes at 240 uM after 24 hrs by spectrophotometry. In kind it is ADME, cell-based, Gallus gallus, Erythrocyte. The settings on record: read-out: Activity.
The subject of series [8] is MDCK. The series is described as follows: Cytotoxicity against MDCK cells at 10 times IC50 in antiviral assay after 2 days by WST-1 cell counting assay. The settings on record: dog, 48 h. In kind it is cell-based, Canis lupus familiaris.

Molecules are shown by their SMILES.

For orientation: IC50 means the concentration that gives 50% inhibition. For the compound `CC(C)C[C@H](NC(=O)[C@H](CCCNC(=N)N)NC(=O)[C@H](C)N)C(=O)N1CCC[C@H]1C(=O)N[C@@H](CCCNC(=N)N)C(=O)NCCC[Si](CCCNC(=O)[C@H](CCCNC(=N)N)NC(=O)[C@@H]1CCCN1C(=O)[C@H](CC(C)C)NC(=O)[C@H](CCCNC(=N)N)NC(=O)[C@H](C)N)(CCCNC(=O)[C@H](CCCNC(=N)N)NC(=O)[C@@H]1CCCN1C(=O)[C@H](CC(C)C)NC(=O)[C@H](CCCNC(=N)N)NC(=O)[C@H](C)N)CCCNC(=O)[C@H](CCCNC(=N)N)NC(=O)[C@@H]1CCCN1C(=O)[C@H](CC(C)C)NC(=O)[C@H](CCCNC(=N)N)NC(=O)[C@H](C)N`, the IC50 in series [1] and in series [2] was over 400 µM each time. Besides, the Activity result in series [3] and in series [4] was “Non-toxic” in each case.
For `CC(C)C[C@H](NC(=O)[C@H](CCCNC(=N)N)NC(=O)[C@H](C)N)C(=O)N1CCC[C@H]1C(=O)N[C@@H](CCCNC(=N)N)C(=O)NCCC[Si](CCCNC(=O)[C@H](CCCNC(=N)N)NC(=O)[C@@H]1CCCN1C(=O)[C@H](CC(C)C)NC(=O)[C@H](CCCNC(=N)N)NC(=O)[C@H](C)N)(CCCNC(=O)[C@H](CCCNC(=N)N)NC(=O)[C@@H]1CCCN1C(=O)[C@H](CC(C)C)NC(=O)[C@H](CCCNC(=N)N)NC(=O)[C@H](C)N)CCC[Si](C)(C)CCC[Si](CCCNC(=O)[C@H](CCCNC(=N)N)NC(=O)[C@@H]1CCCN1C(=O)[C@H](CC(C)C)NC(=O)[C@H](CCCNC(=N)N)NC(=O)[C@H](C)N)(CCCNC(=O)[C@H](CCCNC(=N)N)NC(=O)[C@@H]1CCCN1C(=O)[C@H](CC(C)C)NC(=O)[C@H](CCCNC(=N)N)NC(=O)[C@H](C)N)CCCNC(=O)[C@H](CCCNC(=N)N)NC(=O)[C@@H]1CCCN1C(=O)[C@H](CC(C)C)NC(=O)[C@H](CCCNC(=N)N)NC(=O)[C@H](C)N`, the figures for the IC50 in series [1] and in series [2] were 0.6 µM and 0.72 µM, respectively. For the same compound, the hemolysis at 24 h, 48 µM in series [5] was found to be 46%. For the same compound, the CMC in series [6] is 4 µM. The hemolysis at 24 h, 240 µM in series [7] amounted to 85%. In addition, in series [8], the Activity entry is on record as “Non-toxic”.
With `CC(C)C[C@H](NC(=O)[C@H](CCCNC(=N)N)NC(=O)[C@H](C)N)C(=O)N1CCC[C@H]1C(=O)N[C@@H](CCCNC(=N)N)C(=O)NCCC[Si](CCCNC(=O)[C@H](CCCNC(=N)N)NC(=O)[C@@H]1CCCN1C(=O)[C@H](CC(C)C)NC(=O)[C@H](CCCNC(=N)N)NC(=O)[C@H](C)N)(CCCNC(=O)[C@H](CCCNC(=N)N)NC(=O)[C@@H]1CCCN1C(=O)[C@H](CC(C)C)NC(=O)[C@H](CCCNC(=N)N)NC(=O)[C@H](C)N)c1ccccc1`, the IC50 was 5.7 µM in series [1] and 12.6 µM in series [2]. Also, the CMC in series [6] came out at 3.9 µM. Further, the Activity entry in series [8] and in series [3] was “Non-toxic” throughout.
